From publication PMC10152543 (Journal of medicinal chemistry, 2022)

Assay: Parallel artificial membrane permeability assay
Type: in vitro ADME
Settings: result in words

Row | SMILES | permeability by PAMPA
1 | Cc1ccc(CNC(=O)[C@@H]2Cc3cccc(c3)Oc3cccc(c3)C[C@H](N)C(=O)N[C@@H](CCc3ccccc3)C(=O)N2)cc1 [CP1, (5S,8S,11S)-11-amino-N-(4-methylbenzyl)-7,10-dioxo-8-phenethyl-2-oxa-6,9-diaza-1,3(1,3)-dibenzenacyclododecaphane-5-carboxamide] | undetectable
2 | O=C(NC1CCCC1)[C@@H]1CCCCOc2cccc(c2)C[C@H](N2CCCC2=O)C(=O)N[C@@H](CCN2CCOCC2)C(=O)N1 [TDI8304] | modest
